Test results from patent US11000033B2, “Ketone or oxime compound, and herbicide” (NISSAN CHEMICAL CORPORATION, priority 2014, dated 2021).

Experiments:
Type in all cases: in vivo
[1] = test system: Echinochloa oryzacola Vasing.; assay: Test Example 1: herbicidal activity, application before weed generation in submerged conditions (symbol A); details: application herbicide amount 320 g/ha
Outline: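 Application before weed emergence: an aqueous dilution of the emulsion formulation was poured onto the surface of 4 cm-deep floodwater on the day of sowing. Effect was judged after 3 weeks (greenhouse, 25–30 °C).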

Cyperus difformis = assay: Test Example 3: herbicidal effect by foliage application, Wagner pot (symbol E); details: application herbicide amount 320 g/ha
Outline: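 Herbicidal activity was rated three weeks after a foliar spray of diluted emulsion concentrate, applied at a predetermined dose to plants grown for 14 days from seed in waterlogged alluvial soil within a 25–30 °C greenhouse.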

Apera spica-venti = assay: Test Example 4: herbicidal effect by soil treatment (symbol L)
Outline: (§1)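 Seeds were sown in sterilized diluvial soil, covered with about 1.5 cm of soil, and the soil surface was sprayed with a water-diluted emulsion of the compound at a predetermined rate. Plants grew in a greenhouse at 25° C. to 30° C.; effects were scored visually 3 weeks after application.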

Avena fatua = assay: Test Example 5: herbicidal effect by foliage application, plastic box (symbol I); details: 320 g/ha, 3 weeks after application
Outline: (§2)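 Greenhouse foliar test: seedlings at 14 days, grown 25° C. to 30° C. in sterilized diluvial soil; compound applied as an aqueous dilution of an emulsion; response read 3 weeks after spraying.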

Setaria viridis [2] = assay: Test Example 5: herbicidal effect by foliage application, plastic box (symbol G); details: 320 g/ha, 3 weeks after application
Outline: as §2

Veronica persica [3] = assay: Test Example 5: herbicidal effect by foliage application, plastic box (symbol R); details: 320 g/ha, 3 weeks after application
Outline: as §2

Lolium multiflorum Lam. [4] = assay: Test Example 5: herbicidal effect by foliage application, plastic box (symbol K); details: 320 g/ha, 3 weeks after application
Outline: as §2

rice = assay: Test Example 4: effect on crop by soil treatment (symbol b); details: for b: directly sowed rice plant, effect grade on crop: 320 g/ha
Outline: (§3)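 Plants are raised in a greenhouse (25° C. to 30° C.) from spot-sown seed, which sits under about 1.5 cm of sterilized diluvial soil in a box shared with weed species.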

soybean [5] = assay: Test Example 4: effect on crop by soil treatment (symbol d); details: for d: soybean, effect grade on crop: 320 g/ha
Outline: as §3

Setaria viridis [6] = assay: Test Example 4: herbicidal effect by soil treatment (symbol G)
Outline: as §1

Alopecurus myosuroides [7] = assay: Test Example 5: herbicidal effect by foliage application, plastic box (symbol J); details: 320 g/ha, 3 weeks after application
Outline: as §2

Alopecurus myosuroides [8] = assay: Test Example 4: herbicidal effect by soil treatment (symbol J)
Outline: as §1

soybean [9] = assay: Test Example 5: effect on crop by foliage application, plastic box (symbol d); details: 320 g/ha, 3 weeks after application
Outline: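 Soil: sterilized diluvial. Container: plastic box, 21 × 13 cm, 7 cm deep. Sowing: spot-like, ~1.5 cm cover. Growth: greenhouse, 25° C. to 30° C.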

Veronica persica [10] = assay: Test Example 4: herbicidal effect by soil treatment (symbol R)
Outline: as §1

Lolium multiflorum Lam. [11] = assay: Test Example 4: herbicidal effect by soil treatment (symbol K)
Outline: as §1

Amaranthus retroflexus = assay: Test Example 5: herbicidal effect by foliage application, plastic box (symbol N); details: 320 g/ha, 3 weeks after application
Outline: as §2

corn = assay: Test Example 4: effect on crop by soil treatment (symbol c); details: for c: corn, effect grade on crop: 320 g/ha
Outline: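 Soil-treatment setup: crop and weed seeds were spot-sown into sterilized diluvial soil, then buried beneath approximately 1.5 cm of it, and the boxes were housed in a 25–30° C. greenhouse.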

Galium spurium = assay: Test Example 4: herbicidal effect by soil treatment (symbol Q)
Outline: as §1

wheat = assay: Test Example 4: effect on crop by soil treatment (symbol e); details: for e: wheat, effect grade on crop: 320 g/ha
Outline: as §3

[12] = application herbicide amount 320 g/ha

| Compound | Herbicidal effect grade, A: Echinochloa oryzacola Vasing. [1] | herbicidal effect on E, grade 0-5 (Cyperus difformis) | L: Apera spica-venti, herbicidal effect grade (Apera spica-venti; 320 g/ha) | I: Avena fatua, herbicidal effect (criteria 0-5) (Avena fatua) | G: Setaria viridis, herbicidal effect (criteria 0-5) (Setaria viridis [2]) | R: Veronica persica, herbicidal effect (criteria 0-5) (Veronica persica [3]) | K: Lolium multiflorum Lam., herbicidal effect (criteria 0-5) (Lolium multiflorum Lam. [4]) | b: directly sowed rice plant, effect grade on crop (rice) | d: soybean, effect grade on crop (soybean [5]) | G: Setaria viridis, herbicidal effect grade (Setaria viridis [6]; 320 g/ha) | J: Alopecurus myosuroides, herbicidal effect (criteria 0-5) (Alopecurus myosuroides [7]) | J: Alopecurus myosuroides, herbicidal effect grade (Alopecurus myosuroides [8]; 320 g/ha) | d: soybean, effect on crop (criteria 0-5) (soybean [9]) | R: Veronica persica, herbicidal effect grade (Veronica persica [10]; 320 g/ha) | K: Lolium multiflorum Lam., herbicidal effect grade (Lolium multiflorum Lam. [11]; 320 g/ha) | N: Amaranthus retroflexus, herbicidal effect (criteria 0-5) (Amaranthus retroflexus) | c: corn, effect grade on crop (corn) | Q: Galium spurium, herbicidal effect grade (Galium spurium; 320 g/ha) | e: wheat, effect grade on crop (wheat) | further results |
| --- | --- | --- | --- | --- | --- | --- | --- | --- | --- | --- | --- | --- | --- | --- | --- | --- | --- | --- | --- | --- |
| CCC(CC1CC(O)=C(c2c(C)cc(-c3ccccc3)cc2OC)C1=O)=NOC (mixture of isomers) [13-004] | – | – | – | – | – | – | – | – | – | – | – | – | – | – | – | – | – | – | – | A (Echinochloa oryzacola Vasing.) herbicidal effect grade [1]: 5 (Herbicidal ratio of 90% or more (almost completely withered)); E herbicidal effect grade (Cyperus difformis; Table 24): 5 (Herbicidal ratio of 90% or more (almost completely withered)); L: Apera spica-venti, herbicidal effect grade (Apera spica-venti; [12]): 5 (Herbicidal ratio of 90% or more (almost completely withered)); I: Avena fatua, herbicidal effect grade (Avena fatua): 5 (Herbicidal ratio of 90% or more (almost completely withered)); G: Setaria viridis, herbicidal effect grade (Setaria viridis [2]): 5 (Herbicidal ratio of 90% or more (almost completely withered)); R: Veronica persica, herbicidal effect grade (Veronica persica [3]): 3 (Herbicidal ratio of 40% or higher and lower than 70%); K: Lolium multiflorum Lam., herbicidal effect grade (Lolium multiflorum Lam. [4]): 5 (Herbicidal ratio of 90% or more (almost completely withered)); b: directly sowed rice plant, effect on crop grade (rice; [12]): 5 (Herbicidal ratio of 90% or more (almost completely withered)); d: soybean, effect on crop grade (soybean [5]; [12]): 1 (Herbicidal ratio of 5% or higher and lower than 20%); G: Setaria viridis, herbicidal effect grade (Setaria viridis [6]; [12]): 5 (Herbicidal ratio of 90% or more (almost completely withered)); J: Alopecurus myosuroides, herbicidal effect grade (Alopecurus myosuroides [7]): 5 (Herbicidal ratio of 90% or more (almost completely withered)); J: Alopecurus myosuroides, herbicidal effect grade (Alopecurus myosuroides [8]; [12]): 5 (Herbicidal ratio of 90% or more (almost completely withered)); d: soybean, effect on crop grade (soybean [9]): 1 (Herbicidal ratio of 5% or higher and lower than 20%); R: Veronica persica, herbicidal effect grade (Veronica persica [10]; [12]): 3 (Herbicidal ratio of 40% or higher and lower than 70%); K: Lolium multiflorum Lam., herbicidal effect grade (Lolium multiflorum Lam. [11]; [12]): 5 (Herbicidal ratio of 90% or more (almost completely withered)); N: Amaranthus retroflexus, herbicidal effect grade (Amaranthus retroflexus): 0 (Herbicidal ratio of 5% or lower (almost no effect)); c: corn, effect on crop grade (corn; [12]): 5 (Herbicidal ratio of 90% or more (almost completely withered)); Q: Galium spurium, herbicidal effect grade (Galium spurium; [12]): 0 (Herbicidal ratio of 5% or lower (almost no effect)); e: wheat, effect on crop grade (wheat; [12]): 5 (Herbicidal ratio of 90% or more (almost completely withered)) |
| CON=C(C)CC1CC(OC(=O)c2cc(C)on2)=C(c2c(C)cc(C)cc2C)C1=O (stereo not drawn) [1-100] | 5 (Herbicidal ratio of 90% or more (almost completely withered)) | 5 (Herbicidal ratio of 90% or more (almost completely withered)) | 5 (Herbicidal ratio of 90% or more (almost completely withered)) | 5 (Herbicidal ratio of 90% or more (almost completely withered)) | 5 (Herbicidal ratio of 90% or more (almost completely withered)) | 3 (Herbicidal ratio of 40% or higher and lower than 70%) | 5 (Herbicidal ratio of 90% or more (almost completely withered)) | 5 (Herbicidal ratio of 90% or more (almost completely withered)) | 2 (Herbicidal ratio of 20% or higher and lower than 40%) | 5 (Herbicidal ratio of 90% or more (almost completely withered)) | 5 (Herbicidal ratio of 90% or more (almost completely withered)) | 5 (Herbicidal ratio of 90% or more (almost completely withered)) | 3 (Herbicidal ratio of 40% or higher and lower than 70%) | 1 (Herbicidal ratio of 5% or higher and lower than 20%) | 5 (Herbicidal ratio of 90% or more (almost completely withered)) | 0 (Herbicidal ratio of 5% or lower (almost no effect)) | 5 (Herbicidal ratio of 90% or more (almost completely withered)) | 0 (Herbicidal ratio of 5% or lower (almost no effect)) | 5 (Herbicidal ratio of 90% or more (almost completely withered)) | – |
| CC(CC1CC(O)=C(c2c(C)cc(C)cc2C)C1=O)=NOCCS(C)(=O)=O (stereo not drawn) [1-110] | 3 (Herbicidal ratio of 40% or higher and lower than 70%) | 5 (Herbicidal ratio of 90% or more (almost completely withered)) | 5 (Herbicidal ratio of 90% or more (almost completely withered)) | 5 (Herbicidal ratio of 90% or more (almost completely withered)) | 5 (Herbicidal ratio of 90% or more (almost completely withered)) | 3 (Herbicidal ratio of 40% or higher and lower than 70%) | 5 (Herbicidal ratio of 90% or more (almost completely withered)) | 5 (Herbicidal ratio of 90% or more (almost completely withered)) | 0 (Herbicidal ratio of 5% or lower (almost no effect)) | 5 (Herbicidal ratio of 90% or more (almost completely withered)) | 5 (Herbicidal ratio of 90% or more (almost completely withered)) | 5 (Herbicidal ratio of 90% or more (almost completely withered)) | 0 (Herbicidal ratio of 5% or lower (almost no effect)) | 0 (Herbicidal ratio of 5% or lower (almost no effect)) | 5 (Herbicidal ratio of 90% or more (almost completely withered)) | 0 (Herbicidal ratio of 5% or lower (almost no effect)) | 4 (Herbicidal ratio of 70% or higher and lower than 90%) | 0 (Herbicidal ratio of 5% or lower (almost no effect)) | 5 (Herbicidal ratio of 90% or more (almost completely withered)) | – |
